This note sets out measurements from ChEMBL document CHEMBL4842376, “Design, synthesis and biological evaluation of novel hybrids targeting mTOR and HDACs for potential treatment of hepatocellular carcinoma” (Eur J Med Chem, 2021).

Series [1] deals with HepG2. Kind of series: Induction of apoptosis in human HepG2 cells assessed as late apoptotic cells at 10 uM measured after 24 hrs by Annexin V-FITC/PI staining based flow cytometry analysis (Rvb= […]). In kind it is functional.
The target in series [2] is Serine/threonine-protein kinase mTOR (Homo sapiens, UniProt P42345). The experiment in a line: Inhibition of mTOR (unknown origin) at 1 uM using U-Light-4E-BP1 peptide as a substrate in the presence of ATP incubated for 30 mins by Lance ultra assay relative to control.
The test system of series [3] is HepG2. Kind of series: Induction of apoptosis in human HepG2 cells assessed as necrotic cells at 2.5 uM measured after 24 hrs by Annexin V-FITC/PI staining based flow cytometry analysis (Rvb= 0.082%). It is filed as functional.
Series [4] deals with HepG2. Kind of series: Induction of apoptosis in human HepG2 cells assessed as early apoptotic cells at 2.5 uM measured after 24 hrs by Annexin V-FITC/PI staining based flow cytometry analysis (Rvb= 6.15%). In kind it is functional.
The subject of a further series is Bel-7402. The experiment in a line: Antiproliferative activity against human Bel-7402 cells assessed as inhibition of cell growth measured after 72 hrs by MTT assay. It is filed as functional, cell-based. The conditions noted are these: Bel-7402, 72 h.
Another series concerns the target Histone deacetylase 2 (Homo sapiens, UniProt Q92769).
The subject of the next series is Huh-7. Kind of series: cells. In kind it is functional, cell-based. The conditions noted are these: Homo sapiens, Huh-7, 72 h.
For series [5], the system named is HepG2. Kind of series: Induction of cell cycle arrest in human HepG2 cells assessed as accumulation of cells in G0/G1 phase at 3 uM measured after 24 hrs by propidium iodide staining based flow cytometry analysis (reference value: 52.7 to 63.2%). It is filed as functional.
The next series has as its target T1, Histone deacetylase 8 (Homo sapiens, UniProt Q9BY41).
T1 sequence (Q9BY41 whole entry): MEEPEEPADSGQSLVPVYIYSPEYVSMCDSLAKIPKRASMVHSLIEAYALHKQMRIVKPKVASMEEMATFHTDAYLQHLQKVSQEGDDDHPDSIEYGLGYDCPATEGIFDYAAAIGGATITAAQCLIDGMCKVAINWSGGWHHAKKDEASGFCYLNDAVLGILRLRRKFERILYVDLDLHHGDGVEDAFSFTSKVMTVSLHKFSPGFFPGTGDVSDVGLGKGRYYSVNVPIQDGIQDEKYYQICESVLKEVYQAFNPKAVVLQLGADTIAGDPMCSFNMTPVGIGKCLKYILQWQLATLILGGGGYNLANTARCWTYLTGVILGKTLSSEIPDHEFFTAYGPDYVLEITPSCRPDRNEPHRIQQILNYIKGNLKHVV
Kind of series: Inhibition of HDAC8 (unknown origin) using Ac-peptide as a substrate pretreated for 15 mins followed by substrate addition.

The subject of series [6] is HepG2. The experiment in a line: Induction of cell cycle arrest in human HepG2 cells assessed as accumulation of cells in S phase at 6 uM measured after 24 hrs by propidium iodide staining based flow cytometry analysis (reference value: 17 to 26.4%). It is filed as functional.
Series [7] relates to HepG2. The experiment in a line: Induction of apoptosis in human HepG2 cells assessed as necrotic cells at 5 uM measured after 24 hrs by Annexin V-FITC/PI staining based flow cytometry analysis (Rvb= 0.082%). It is filed as functional.
The subject of another series is A549. The experiment in a line: cells. In kind it is functional, cell-based. As to conditions: Homo sapiens, A549, 72 h.
For the next series, the system named is Hep 3B2. Kind of series: cells. In kind it is functional, cell-based. The conditions noted are these: Homo sapiens, Hep3B, 72 h.
For a further series, the target named is Histone deacetylase 1 (Homo sapiens, UniProt Q13547). Kind of series: Inhibition of HDAC1 (unknown origin) using Ac-peptide as a substrate pretreated for 15 mins followed by substrate addition.
Series [8] concerns the target T2, Protein deacetylase HDAC6 (Homo sapiens) (UniProt Q9UBN7).
T2 sequence (whole entry): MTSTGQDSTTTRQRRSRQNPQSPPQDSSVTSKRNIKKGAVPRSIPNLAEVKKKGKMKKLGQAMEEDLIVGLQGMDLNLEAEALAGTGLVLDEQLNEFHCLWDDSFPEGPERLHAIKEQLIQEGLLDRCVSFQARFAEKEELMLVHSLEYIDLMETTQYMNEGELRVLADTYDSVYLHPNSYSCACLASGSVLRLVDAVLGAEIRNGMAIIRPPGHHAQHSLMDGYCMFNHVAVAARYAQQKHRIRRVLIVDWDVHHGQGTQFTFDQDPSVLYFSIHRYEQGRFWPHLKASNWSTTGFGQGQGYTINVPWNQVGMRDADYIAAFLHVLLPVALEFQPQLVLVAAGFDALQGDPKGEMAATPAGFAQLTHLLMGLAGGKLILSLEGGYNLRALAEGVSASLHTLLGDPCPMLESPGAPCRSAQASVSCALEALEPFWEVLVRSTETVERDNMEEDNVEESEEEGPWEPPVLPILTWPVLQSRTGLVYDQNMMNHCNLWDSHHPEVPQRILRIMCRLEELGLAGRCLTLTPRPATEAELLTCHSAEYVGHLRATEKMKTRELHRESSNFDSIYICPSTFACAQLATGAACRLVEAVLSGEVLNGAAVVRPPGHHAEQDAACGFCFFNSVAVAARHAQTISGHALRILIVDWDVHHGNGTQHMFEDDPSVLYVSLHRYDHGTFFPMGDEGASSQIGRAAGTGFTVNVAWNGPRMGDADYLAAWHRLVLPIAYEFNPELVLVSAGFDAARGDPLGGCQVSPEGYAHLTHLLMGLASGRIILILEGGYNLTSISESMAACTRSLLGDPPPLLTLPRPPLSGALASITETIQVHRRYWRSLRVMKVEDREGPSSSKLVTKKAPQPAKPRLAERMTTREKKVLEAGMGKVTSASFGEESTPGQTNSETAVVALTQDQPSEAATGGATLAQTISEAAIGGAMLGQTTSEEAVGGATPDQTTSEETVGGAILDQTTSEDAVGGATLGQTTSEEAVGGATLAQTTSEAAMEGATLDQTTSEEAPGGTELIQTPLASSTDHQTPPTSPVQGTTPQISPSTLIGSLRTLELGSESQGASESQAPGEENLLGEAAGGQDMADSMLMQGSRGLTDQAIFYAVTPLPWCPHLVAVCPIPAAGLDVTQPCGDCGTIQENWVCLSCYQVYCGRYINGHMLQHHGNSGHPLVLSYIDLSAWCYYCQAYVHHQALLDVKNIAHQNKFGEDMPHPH
The experiment in a line: Inhibition of HDAC6 (unknown origin) at 1 uM using Ac-peptide as a substrate pretreated for 15 mins followed by substrate addition relative to control.

In another series the test system is HeLa. The experiment in a line: cells. In kind it is functional, cell-based. The conditions noted are these: Homo sapiens, 72 h.
For series [9], the system named is HepG2. Kind of series: Induction of apoptosis in human HepG2 cells assessed as late apoptotic cells at 5 uM measured after 24 hrs by Annexin V-FITC/PI staining based flow cytometry analysis (Rvb= […]). It is filed as functional.
Series [10] concerns the target T3, Protein deacetylase HDAC6 (Homo sapiens, UniProt Q9UBN7).
T3 sequence (Q9UBN7 whole entry): T2 sequence (whole entry)
The experiment in a line: Inhibition of HDAC6 (unknown origin) using Ac-peptide as a substrate pretreated for 15 mins followed by substrate addition.

A short description of series [11]: Metabolic stability in rat liver microsomes assessed as parent compound remaining at 10 ug/ml measured after 1 hr in the presence of NADPH by HPLC analysis. As to conditions: at 10 µg/mL. In kind it is ADME, Microsome.

Chain of Histone deacetylase 1 (Q13547 whole entry): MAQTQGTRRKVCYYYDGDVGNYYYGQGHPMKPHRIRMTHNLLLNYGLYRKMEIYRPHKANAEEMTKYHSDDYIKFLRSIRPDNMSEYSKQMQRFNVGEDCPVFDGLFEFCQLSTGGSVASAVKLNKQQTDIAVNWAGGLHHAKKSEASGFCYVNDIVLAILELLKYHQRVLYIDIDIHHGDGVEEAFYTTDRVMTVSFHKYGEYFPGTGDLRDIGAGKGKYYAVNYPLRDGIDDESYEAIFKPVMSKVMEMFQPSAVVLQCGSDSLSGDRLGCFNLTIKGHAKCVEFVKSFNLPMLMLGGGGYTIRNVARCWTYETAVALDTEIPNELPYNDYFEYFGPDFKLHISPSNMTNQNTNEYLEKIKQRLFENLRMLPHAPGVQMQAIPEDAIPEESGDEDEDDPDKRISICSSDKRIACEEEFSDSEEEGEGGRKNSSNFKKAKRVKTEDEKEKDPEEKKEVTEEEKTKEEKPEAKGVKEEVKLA
Chain of Histone deacetylase 2 (Q92769 whole entry): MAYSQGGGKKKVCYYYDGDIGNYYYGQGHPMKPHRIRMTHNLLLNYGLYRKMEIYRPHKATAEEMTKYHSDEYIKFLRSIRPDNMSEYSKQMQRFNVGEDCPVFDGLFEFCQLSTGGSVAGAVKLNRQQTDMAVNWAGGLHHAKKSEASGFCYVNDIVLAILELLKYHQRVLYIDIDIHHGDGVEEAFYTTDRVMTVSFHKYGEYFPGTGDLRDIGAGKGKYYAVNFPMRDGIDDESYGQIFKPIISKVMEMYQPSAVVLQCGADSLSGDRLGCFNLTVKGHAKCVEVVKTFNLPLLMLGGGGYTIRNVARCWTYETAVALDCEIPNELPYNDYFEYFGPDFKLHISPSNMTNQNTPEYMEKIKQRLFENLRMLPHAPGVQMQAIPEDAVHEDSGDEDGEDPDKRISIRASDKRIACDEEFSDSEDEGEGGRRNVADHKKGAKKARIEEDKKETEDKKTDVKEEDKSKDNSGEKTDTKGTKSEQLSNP
Description for A549: Antiproliferative activity against human A549 cells assessed as inhibition of cell growth measured after 72 hrs by MTT assay
Description for HeLa: Antiproliferative activity against human HeLa cells assessed as inhibition of cell growth measured after 72 hrs by MTT assay
Description for Hep 3B2: Antiproliferative activity against human Hep3B cells assessed as inhibition of cell growth measured after 72 hrs by MTT assay
Description for Huh-7: Antiproliferative activity against human Huh-7 cells assessed as inhibition of cell growth measured after 72 hrs by MTT assay

As to `Nc1nc2cc(-c3nn(CCCCCCC(=O)NO)c4ncnc(N)c34)ccc2o1`, the Activity in the series with HepG2 [1] is listed as 27.2%; with HepG2 [3] it was 0.15%; in the series with HepG2 [4] it was 28.1%; in the series on HepG2 [5], 70.4%; in the series on HepG2 [6], 7.78%; in the series on HepG2 [7] it was 0.59%. Besides, the Activity in the series on HepG2 [9] worked out at 14.5%. For the same compound, the inhibition in series [2] and in series [8] was 99% throughout. Further, the IC50 in the series on Bel-7402 is greater than 50 µM; on Histone deacetylase 2, 0.0032 µM; in the series on Huh-7, 5.71 µM; on Histone deacetylase 8, 0.231 µM; in the series with A549, 33 µM; with Hep 3B2, 14 µM. The results for the IC50 (on Histone deacetylase 1; in the series on HeLa; in series [10]) were 0.0031 µM, 6.41 µM and 0.0103 µM, respectively. Also, the Stabilty result in [11] (microsomes, 1 h) was “Stable”.

On to `Nc1ncnc2c1c(-c1cnc3[nH]ccc3c1)nn2CCCCCCCCC(=O)NO`, for which the Activity in the series with HepG2 [1] is recorded as 17.8%; in the series with HepG2 [3], 0.56%; in the series on HepG2 [4] it was 17.4%; with HepG2 [5], 64.5%; with HepG2 [6] it was 11.5%; in the series with HepG2 [7], 0.15%. The Activity in the series on HepG2 [9] was found to be 10.4%. In addition, the inhibition in series [2] came to 97.7%; in series [8] it was 99.2%. Moreover, the IC50 with Bel-7402 amounted to 18.9 µM; against Histone deacetylase 2 it was 0.024 µM; in the series with Huh-7, 7.38 µM; at Histone deacetylase 8 it was 0.733 µM; in the series on A549 it was 12.2 µM; with Hep 3B2, 8.39 µM. Further, the concentration for half-maximal inhibition (IC50) on Histone deacetylase 1 was determined as 0.02 µM; in the series on HeLa, 7.47 µM; in series [10] it was 0.00954 µM. For the same compound, in series [11] (liver microsomes, read-out: Stabilty), the remaining at 1 h, 10 ug/ml worked out at 55.2%.
